Tests used:
Format in all cases: cell-based
Human LPA1 [1] = molecular target: T1, Human LPA1 (Homo sapiens, UniProt Q92633); test: Beta-Arrestin based assay for human LPA1R antagonists (PathHunter); design: host or cells: CHO; details: CHO cells stably expressing ProLink tagged human LPA1R; agonist LPA 0.5 micromolar
Procedure, shortened: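 CHO cells stably expressing ProLink-tagged human LPA1R with β-arrestin–EA fusion, assayed by β-galactosidase complementation. Antagonists tested against 0.5 micromolar LPA ([…]), in quadruplicate. End-point luminescence fitted to a 4-parameter logistic to give IC50.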

Human LPA1 [2] = molecular target: T1, Human LPA1; test: LPA1 calcium flux assay; design: the full-length cDNA for human LPA1 is obtained by PCR of the reverse transcription reaction; expressed in transfected cells; host or cells: CHO; details: human LPA1 expressing CHO cells; stimulated with 10 nM LPA; read-out: Ca Flux LPA1 IC50
Protocol: Establishment of a CHO Cell Line Stably Expressing Human LPA1
A 1.1 kb cDNA encoding the human LPA1 receptor is cloned from human lung. Human lung RNA (Clontech Laboratories, Inc. USA) is reverse transcribed using the RETROscript kit (Ambion, Inc.) and the full-length cDNA for human LPA1 is obtained by PCR of the reverse transcription reaction. The nucleotide sequence of the cloned human LPA1 is determined by sequencing and is confirmed to be identical to the published human LPA1 sequence (An et al. Biochem. Biophys. Res. Commun. 231:619 (1997). The cDNA is cloned into the pcDNA5 pcDNA5/FRT expression plasmid and is transfected in CHO cells using lipofectamine 2000 (Invitrogen Corp., USA). Clones stably expressing human LPA1 are selected using hygromycin and identified as cells that show Ca-influx in response to LPA.
(§1) LPA1 and LPA3 Calcium Flux Assays
(§2) Human LPA1 or LPA3 expressing CHO cells were seeded at 20,000-45,000 cells per well in a 96-well poly-D-lysine coated plate one or two days before the assay. Prior to the assay, the cells were washed once with PBS and then cultured in serum-free media overnight. On the day of the assay, a calcium indicator dye (Calcium 4, Molecular Devices) in assay buffer (HBSS with Ca^2+ and Mg^2+ and containing 20 mM Hepes and 0.3% fatty-acid free human serum albumin) was added to each well and incubation continued for 1 hour at 37° C. 10 μl of test compounds in 2.5% DMSO were added to the cells and incubation continued at room temperature for 30 minutes. Cells were then stimulated by the addition of 10 nM LPA and intracellular Ca^2+ measured using the Flexstation 3 (Molecular Devices). IC50s were determined using Graphpad prism analysis of drug titration curves.

Human LPA3 = molecular target: T2, Human LPA3 (Homo sapiens, UniProt Q9UBY5); test: LPA3 calcium flux assay; details: human LPA3 expressing CHO cells; stimulated with 10 nM LPA; read-out: Ca Flux LPA3 IC50
T2 construct: The full-length cDNA fragment for human LPA3 is obtained by PCR from the vector; expressed in transfected cells; host or cells: CHO
T2 sequence (Q9UBY5 1-353): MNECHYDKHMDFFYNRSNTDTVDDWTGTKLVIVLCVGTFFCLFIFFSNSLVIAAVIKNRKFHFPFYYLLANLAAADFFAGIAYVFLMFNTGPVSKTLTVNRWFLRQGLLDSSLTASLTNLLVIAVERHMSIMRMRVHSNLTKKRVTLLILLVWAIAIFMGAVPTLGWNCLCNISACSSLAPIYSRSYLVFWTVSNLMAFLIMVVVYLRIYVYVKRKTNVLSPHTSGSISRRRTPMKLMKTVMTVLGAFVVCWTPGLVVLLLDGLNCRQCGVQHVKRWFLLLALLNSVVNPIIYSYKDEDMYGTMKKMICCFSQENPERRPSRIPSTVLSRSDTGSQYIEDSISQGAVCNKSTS
Protocol: Establishment of a CHO Cell Line Stably Expressing Human LPA3
A vector containing the human LPA3 receptor cDNA is obtained from the Missouri S&T cDNA Resource Center (www.cdna.org). The full-length cDNA fragment for human LPA3 is obtained by PCR from the vector. The nucleotide sequence of the cloned human LPA3 is determined by sequencing and is confirmed to be identical to the published human LPA3 sequence (NCBI accession number NM_012152). The cDNA is cloned into the pcDNA5 pcDNA5/FRT expression plasmid and is transfected in CHO cells using lipofectamine 2000 (Invitrogen Corp., USA). Clones stably expressing human LPA3 are selected using hygromycin and identified as cells that show Ca-influx in response to LPA.
as §1, §2

T1 sequence (Q92633 whole entry, the tested form may be a part): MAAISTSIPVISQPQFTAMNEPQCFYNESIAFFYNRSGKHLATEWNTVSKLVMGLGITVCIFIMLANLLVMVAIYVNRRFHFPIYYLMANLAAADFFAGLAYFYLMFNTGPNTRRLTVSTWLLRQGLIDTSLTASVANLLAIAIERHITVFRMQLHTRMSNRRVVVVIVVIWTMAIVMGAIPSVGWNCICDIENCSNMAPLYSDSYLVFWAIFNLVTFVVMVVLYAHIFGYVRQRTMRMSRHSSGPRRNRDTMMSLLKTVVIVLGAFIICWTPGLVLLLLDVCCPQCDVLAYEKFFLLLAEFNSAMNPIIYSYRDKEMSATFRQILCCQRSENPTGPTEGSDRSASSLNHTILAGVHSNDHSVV

SMILES | EC50 (Human LPA1 [1]) [µM] | IC50 (Human LPA1 [2]) [µM] | IC50 (Human LPA3) [µM]
Cc1noc(-c2ccc(-c3ccc(C4CCOCC4C(=O)O)cc3)cc2)c1NC(=O)O[C@H](C)c1ccccc1Cl (some centres unmarked) [Compound 79] | < 0.05 | 0.05 to 0.5 | –
Cc1noc(-c2ccc(-c3ccc(C4(C(=O)O)CC4)cc3)cc2)c1NC(=O)O[C@H](C)c1ccccc1 [Compound 74] | < 0.05 | < 0.05 | > 0.5
Cc1noc(-c2ccc(-c3ccc(CC(=O)O)cc3)cc2)c1NS(=O)(=O)c1ccccc1 [Compound 19] | > 0.5 | > 0.5 | –
Cc1nsc(-c2ccc(-c3ccc(C4(C(=O)O)CC4)cc3)cc2)c1NC(=O)O[C@H](C)c1ccccc1 [Compound 44] | < 0.05 | < 0.05 | –
Cc1nsc(-c2ccc(-c3ccc(C4(C(=O)O)CC4)cc3)cc2)c1NC(=O)OCc1ccccc1 [Compound 45] | < 0.05 | < 0.05 | –
C[C@@H](OC(=O)Nc1c(-c2ccc(-c3ccc(C4(C(=O)O)CC4)cc3)cc2)oc2ncccc12)c1ccccc1 [Compound 152] | < 0.05 | 0.05 to 0.5 | 0.05 to 0.5
Cc1nsc(-c2ccc(-c3ccc(C4(C(=O)O)CC4)cc3)c(F)c2)c1NC(=O)O[C@H](C)c1ccccc1 [Compound 185] | < 0.05 | < 0.05 | –
C[C@@H](OC(=O)Nc1c(-c2ccc(-c3ccc(C4(C(=O)O)CC4)cc3)cc2)cnn1C)c1ccccc1 [Compound 170] | < 0.05 | < 0.05 | > 0.5
Cc1nsc(C#Cc2ccc(C3(C(=O)O)CC3)cc2)c1NC(=O)O[C@H](C)c1ccccc1 [Compound 82] | 0.05 to 0.5 | > 0.5 | –
C[C@@H](OC(=O)Nc1c(-c2ccc(-c3ccc(C4(C(=O)O)CC4)cc3)cc2)oc2ncccc12)c1ccccc1Cl [Compound 153] | < 0.05 | > 0.5 | > 0.5
Cc1snc(-c2ccc(-c3ccc(C4(C(=O)O)CC4)cc3)cc2)c1NC(=O)O[C@H](C)c1ccccc1Cl [Compound 56] | < 0.05 | 0.05 to 0.5 | –
Cc1noc(-c2ccc(-c3ccc(CC(=O)O)c4ccccc34)cc2)c1NC(=O)O[C@H](C)c1ccccc1Cl [Compound 6] | < 0.05 | 0.05 to 0.5 | 0.05 to 0.5
Cc1noc(-c2ccc(-c3ccc(C4(C(=O)O)CCOCC4)cc3)cc2)c1NC(=O)O[C@H](C)c1ccccc1 [Compound 242] | < 0.05 | 0.05 to 0.5 | –
C[C@@H](OC(=O)Nc1ccnn1-c1ccc(-c2ccc(C3(C(=O)O)CC3)cc2)cc1)c1ccccc1Cl [Compound 67] | < 0.05 | < 0.05 | –
Cc1noc(-c2ccc(-c3ccc(C(C(=O)O)c4ccccc4)cc3)cc2)c1NC(=O)O[C@H](C)c1ccccc1Cl (single isomer, unassigned) [Compound 14] | < 0.05 | < 0.05 | 0.05 to 0.5
C[C@@H](OC(=O)Nc1scnc1-c1ccc(-c2ccc(C3(C(=O)O)CC3)cc2)cc1)c1ccccc1Cl [Compound 107] | < 0.05 | < 0.05 | –
Cc1nsc(-c2cc(F)c(-c3ccc(C4(C(=O)O)CC4)cc3)cc2F)c1NC(=O)O[C@H](C)c1ccccc1 [Compound 182] | < 0.05 | < 0.05 | –
Cc1nsc(C#Cc2ccc(C3(C(=O)O)CC3)cc2)c1NC(=O)O[C@H](C)c1ccccc1Cl [Compound 81] | < 0.05 | < 0.05 | –
Cc1nnn(-c2ccc(-c3ccc(C4(C(=O)O)CC4)cc3)cc2)c1NC(=O)O[C@H](C)c1ccccc1Cl [Compound 64] | < 0.05 | 0.05 to 0.5 | –

From patent publication US8975235B2, “Lysophosphatidic acid receptor antagonists” (InterMune, Inc., priority 2011, dated 2015)
